# In publication PMC8766756, “Insights on Cancer Cell Inhibition, Subcellular Activities, and Kinase Profile of Phenylacetamides Pending 1H-Imidazol-5-One Variants” (Frontiers in Pharmacology, 2022):
# “Also recorded” adds a separate entry of the source.
# What was measured:
# bovine brain tubulin = test: Tubulin polymerization assay (cell-free); assay type: biochemical; settings: 10 and 30 µM, compared with KX2-391 (10 µM)
# Description: KX2-391 (KX-01), the prototype of KIM-161, is a known powerful tubulin polymerization inhibitor. Consequently, we investigated its effect on tubulin polymerization using a cell-free assay that also included paclitaxel as another positive reference that affects tubulin function through stabilization of tubulin polymers (Figure 9).
# FIGURE 9 Tubulin polymerization assay for KIM-161 at 10 and 30 µM compared to paclitaxel (10 µM) and KX2-391 (10 µM) as positive controls. The negative control (vehicle) contained DMSO (1% v/v). The effect on the tubulin assembly was monitored turbidometrically at 340 nm every 30 s for 60 min at 37°C. Fold inhibition of tubulin polymerization was calculated using the V max value for each reaction. The results represent the mean for three separate experiments.
# The assembly of purified bovine tubulin was monitored using a kit BK006 purchased from Cytoskeleton Inc. (Denver, CO, USA). The assay was carried out in accordance with the manufacturer's instructions in the tubulin polymerization assay kit manual using the standard assay conditions. The values reported represent the average values from two independent assays. […] Therefore, tubulin assembly was monitored turbidimetrically at 340 nm at 37°C in a Spectramax 340 PC spectrophotometer (Molecular Devices, Sunnyvale, CA, USA). The absorbance was measured at 30-s intervals for 60 min.
# STAT2 (Y689) = test: Human Phospho-Kinase Array in HL60 cells; assay type: cell-based
# Excerpt: (§1) We also measured changes in kinase activities of some selected Ser/Thr kinases using the Human Phospho-Kinase Array® kit (R&D Systems) which encompasses phosphoprotein-specific capture antibodies spotted at a certain location (in duplicates) on a nitrocellulose membrane. The signal intensities, detected by a sandwich immunoassay, are proportional to the amount of each phosphokinase in the cell lysate (Figure 8).
# (§2) FIGURE 8 Phosphokinase proteome profile of KIM-161 in HL60 cell line. (A) Cells lysates were prepared after 10 h treatment with KIM-161 and applied to the membranes prespotted with the different antibodies. […] The height of each bar represents the average intensity of certain protein signals in treated cells/untreated × 100. Therefore, the dotted line represents the control percentage (100%).
# (§3) The phosphorylation profile of 48 kinases was performed using the Proteome Profiler Human Phospho-Kinase Array an antibody array kit, by R&D Systems (Minneapolis, MN, USA). Total protein was extracted from the cell lysates treated with 365 nM KIM-161 for 10 h using the lysis buffer provided in the kit and quantified using the Bio-Rad DC Protein Assay kit (USA). The nitrocellulose membrane set (A&B), pre-spotted with the capture antibodies, was first blocked with 1 ml of Array buffer 1 at RT for 1 h in an 8-well multi-dish on a rocking platform shaker. Approximately 600 µg of protein concentrate (<334 µL) was diluted in the Array buffer 1 to a final volume of 2 ml. 1 ml of the protein sample was added onto the membrane set and incubated overnight at 4°C on a rocking platform shaker. Subsequently, membranes were washed with 15 ml of 1× wash buffer thrice for 5 min at RT, and the excess buffer was completely drained. The membranes A&B were then incubated with appropriate detection antibody cocktails A&B that were reconstituted using the 1× Array buffer 2/3 for 2 h at RT. After the incubation was complete, the membranes were washed with 15 ml of 1× wash buffer thrice for 5 min at RT, and the excess buffer was completely drained. Streptavidin-HRP (1:2000), diluted in 1× Array buffer 2/3, was applied onto the membranes and incubated for 30 min at RT on a rocking platform shaker. The membranes were washed thrice, and Chemi Reagent 1&2 were applied in equal volumes for detection on C-DiGit®Blot Scanner (LI-COR Odyssey Imaging Systems, Lincoln, Nebraska, USA) using the Image Studio 5.0 software.
# AKT 1/2/3 = test: Human Phospho-Kinase Array in HL60 cells; assay type: cell-based; settings: 10 h (KIM-161 365 nM)
# Excerpt: as §1, §2, §3
# CREB = test: Human Phospho-Kinase Array in HL60 cells; assay type: cell-based
# Excerpt: as §1, §2, §3
# HSP60 = test: Human Phospho-Kinase Array in HL60 cells; assay type: cell-based
# Excerpt: as §1, §2, §3
# AMPKα1 = test: Human Phospho-Kinase Array in HL60 cells; assay type: cell-based
# Excerpt: as §1, §2, §3
# GSK-3α/β (S21/S9) = test: Human Phospho-Kinase Array in HL60 cells; assay type: cell-based
# Excerpt: as §1, §2, §3
# Chk-2 = test: Human Phospho-Kinase Array in HL60 cells; assay type: cell-based
# Excerpt: as §1, §2, §3
# HSP27 (S78/S82) = test: Human Phospho-Kinase Array in HL60 cells; assay type: cell-based
# Excerpt: as §1, §2, §3
# C-Jun = test: Human Phospho-Kinase Array in HL60 cells; assay type: cell-based
# Excerpt: as §1, §2, §3
# [1] = HL60, 365 nM, 10 h, vs untreated, listed as KIM-161
# [2] = STAT2 spot, HL60 cells, 10 h (KIM-161 365 nM)
# [3] = CREB spot, HL60 cells, 10 h (KIM-161 365 nM)
# [4] = HL60, 365 nM, 10 h, vs untreated
# [5] = HSP60 spot, HL60 cells, 10 h (KIM-161 365 nM)
# [6] = AMPKα1 spot, HL60 cells, 10 h (KIM-161 365 nM)
# [7] = GSK-3α/β spot, HL60 cells, 10 h (KIM-161 365 nM)
# [8] = Chk-2 spot, HL60 cells, 10 h (KIM-161 365 nM)
# [9] = HSP27 spot, HL60 cells, 10 h (KIM-161 365 nM)
# [10] = C-Jun spot, HL60 cells, 10 h (KIM-161 365 nM)
compound,measurement,setting,value
"COc1ccc(/C=C2\N=C(C)N(c3ccc(CC(=O)NCc4ccccc4)cc3)C2=O)cc1 [Compound 4c, (Z)-N-Benzyl-2-(4-(4-(4-methoxybenzylidene)-2-methyl-5-oxo-4,5-dihydro-1H-imidazol-1-yl)phenyl)acetamide]",tubulin polymerization inhibition,bovine brain tubulin,much weaker tubulin polymerization inhibition than KX2-391
same,change of STAT2 phosphokinase signal,STAT2 (Y689); [1],strongly suppresses; also recorded: strong downregulation
same,activity at 0.365 µM,"STAT2 (Y689); Homo sapiens, HL-60, STAT2 spot, HL60 cells, 10 h (KIM-161 365 nM), untreated = 100, read-out: % Ctrl",0%
same,Normalized to HK,STAT2 (Y689); [2],0.00
same,Normalized x10K,STAT2 (Y689); [2],0.00
same,Signal,STAT2 (Y689); [2],0.00
same,Normalized to HK,AKT 1/2/3; AKT 1/2/3 spot,0.00
same,Normalized x10K,AKT 1/2/3; AKT 1/2/3 spot,0.00
same,Signal,AKT 1/2/3; AKT 1/2/3 spot,0.00
same,activity at 0.365 µM,"AKT 1/2/3; Homo sapiens, HL-60, AKT 1/2/3 spot, untreated = 100, read-out: % Ctrl",0%
same,Normalized to HK,CREB; [3],0.0405
same,Normalized x10K,CREB; [3],405.44
same,Signal,CREB; [3],142.45
same,reduction of CREB activity,CREB; [4],36.7%
same,activity at 0.365 µM,"CREB; Homo sapiens, HL-60, CREB spot, HL60 cells, 10 h (KIM-161 365 nM), untreated = 100, read-out: % Ctrl",63.3%
same,reduction of HSP60 activity,HSP60; [4],28.5%
same,Normalized to HK,HSP60; [5],0.0227
same,Normalized x10K,HSP60; [5],227.18
same,Signal,HSP60; [5],90.20
same,activity at 0.365 µM,"HSP60; Homo sapiens, HL-60, HSP60 spot, HL60 cells, 10 h (KIM-161 365 nM), untreated = 100, read-out: % Ctrl",71.5%
same,Normalized to HK,AMPKα1; [6],0.0019
same,Normalized x10K,AMPKα1; [6],18.91
same,Signal,AMPKα1; [6],6.64
same,change of AMPKα1 phosphorylation,AMPKα1; [1],downregulated; also recorded: to a quarter of its level compared to the control
same,activity at 0.365 µM,"AMPKα1; Homo sapiens, HL-60, AMPKα1 spot, HL60 cells, 10 h (KIM-161 365 nM), untreated = 100, read-out: % Ctrl",27.9%
same,Normalized to HK,GSK-3α/β (S21/S9); [7],0.0000
same,Normalized x10K,GSK-3α/β (S21/S9); [7],0.00
same,Signal,GSK-3α/β (S21/S9); [7],0.00
same,change of GSK-3α/β phosphokinase signal,GSK-3α/β (S21/S9); [1],strongly suppresses; also recorded: strong downregulation
same,activity at 0.365 µM,"GSK-3α/β (S21/S9); Homo sapiens, HL-60, GSK-3α/β spot, HL60 cells, 10 h (KIM-161 365 nM), untreated = 100, read-out: % Ctrl",0%
same,Normalized to HK,Chk-2; [8],0.00913
same,Normalized x10K,Chk-2; [8],91.25
same,Signal,Chk-2; [8],32.06
same,change of Chk-2 activity,Chk-2; [4],upregulated
same,change of HSP27 phosphokinase signal,HSP27 (S78/S82); [1],strongly suppresses; also recorded: strong downregulation
same,Normalized to HK,HSP27 (S78/S82); [9],0.00
same,Normalized x10K,HSP27 (S78/S82); [9],0.00
same,Signal,HSP27 (S78/S82); [9],0.00
same,activity at 0.365 µM,"HSP27 (S78/S82); Homo sapiens, HL-60, HSP27 spot, HL60 cells, 10 h (KIM-161 365 nM), untreated = 100, read-out: % Ctrl",0%
same,Normalized to HK,C-Jun; [10],0.1136
same,Normalized x10K,C-Jun; [10],1136.44
same,Signal,C-Jun; [10],451.20
same,enhancement of c-Jun,C-Jun; [4],15.8%
same,activity at 0.365 µM,"C-Jun; Homo sapiens, HL-60, C-Jun spot, HL60 cells, 10 h (KIM-161 365 nM), untreated = 100, read-out: % Ctrl",116%
